Source: patent US20200317642A1, “AMINE-SUBSTITUTED HETEROCYCLIC COMPOUNDS AS EHMT2 INHIBITORS AND DERIVATIVES THEREOF” (Epizyme, Inc., priority 2017, published 2020)

Each compound was assayed on H3K9me2 in MDA-MB-231 cells (assay: MDA-MB-231 H3K9me2 in-cell western assay (EHMT2 ICW)). Conditions: Homo sapiens, Table 3, read-out: EHMT2 ICW (IC50 μM).
Format: cell-based
Description: MDA-MB-231 cell line was purchased from ATCC (Manassas, Va., USA). RPMI/Glutamax medium, Penicillin-Streptomycin, Heat Inactivated Fetal Bovine Serum, and D-PBS were purchased from Life Technologies (Grand Island, N.Y., USA). Odyssey blocking buffer, 800 CW goat anti-mouse IgG (H+L) antibody, and Licor Odyssey Infrared Scanner were purchased from Licor Biosciences, Lincoln, Nebr., USA. H3K9me2 mouse monoclonal antibody (Cat #1220) was purchased from Abcam (Cambridge, Mass., USA). 16% Paraformaldehyde was purchased from Electron Microscopy Sciences, Hatfield, Pa., USA). MDA-MB-231 cells were maintained in complete growth medium (RPMI supplemented with 10% v/v heat inactivated fetal bovine serum) and cultured at 37° C. under 5% C02. UNC0638 was purchased from Sigma-Aldrich (St. Louis, Mo., USA).
General Procedure for MDA-MB-231 HEK9me2 in-Cell Western Assay.
Compound (100 nL) was added directly to 384-well cell plate. MDA-MB-231 cells (ATCC) were seeded in assay medium (RPMI/Glutamax supplemented with 10% v/v heat inactivated fetal bovine serum and 1% Penicillin/Streptomycin, Life Technologies) at a concentration of 3,000 cells per well to a Poly-D-Lysine coated 384-well cell culture plate with 50 μL per well. Plates were incubated at 37° C., 5% CO2 for 48 hours (BD Biosciences 356697). […] After the incubation, 50 μL per well of 8% paraformaldehyde (Electron Microscopy Sciences) in PBS was added to the plates and incubated at room temperature for 20 minutes. Plates were transferred to a Biotek 406 plate washer and washed 2 times with 100 μL per well of wash buffer (1×PBS containing 0.3% Triton X-100 (v/v)). Next, 60 μL per well of Odyssey blocking buffer (Licor Biosciences) was added to each plate and incubated for 1 hour at room temperature. Blocking buffer was removed and 20 μL of monoclonal primary antibody α-H3K9me2 (Abcam) diluted 1:800 in Odyssey buffer with 0.1% Tween 20 (v/v) were added and plates were incubated overnight (16 hours) at 4° C. Plates were washed 5 times with 100 μL per well of wash buffer. Next 20 μL per well of secondary antibody was added (1:500 800 CW donkey anti-mouse IgG (H+L) antibody (Licor Biosciences), 1:1000 DRAQ5 (Cell Signaling Technology) in Odyssey buffer with 0.1% Tween 20 (v/v)) and incubated for 1 hour at room temperature. The plates were washed 5 times with 100 μL per well wash buffer then 2 times with 100 μL per well of water. Plates were allowed to dry at room temperature then imaged on a Licor Odyssey Infrared Scanner (Licor Biosciences) which measured integrated intensity at 700 nm and 800 nm wavelengths. Both 700 and 800 channels were scanned.
First, the ratio for each well was determined by:
Each plate included fourteen control wells of DMSO only treatment (Minimum Inhibition) as well as fourteen control wells (background wells) for maximum inhibition treated with control compound UNC0638 (Background wells).
The average of the ratio values for each well was calculated and used to determine the percent inhibition for each test well in the plate. Control compound was serially diluted three-fold in DMSO for a total of 10 test concentrations beginning at 1 μM. Percent inhibition was calculated as: […]
IC50 curves were generated using triplicate wells per concentration of compound. The IC50 is the concentration of compound at which measured methylation is inhibited by 50% as interpolated from the dose response curves. IC50 values were calculated using a non-linear regression (variable slope-four parameter fit model) with by the following formula:
where Top is fixed at 100% and Bottom is fixed to 0%, [I]=concentration of inhibitor, IC50=half maximal inhibitory concentration and n=Hill Slope.
`CNc1cc(C)nc(Nc2ccc(OC)c(OC[C@H](O)CN3CC4(CC4)C3)c2)n1` [Compound 41] gave an IC50 of over 10 µM.
Compound `CNc1cc(C)nc(Nc2ccc(Cl)c(C(=O)NCCN3CCCC3)c2)n1` [Compound 7] has an IC50 of 1 to 10 µM.
In the case of `CNc1cc(C)nc(Nc2ccc(Cl)c(C(=O)NCC3CCC3)c2)n1` [Compound 3], the IC50 is reported as over 10 µM.
For `CNc1cc(C)nc(Nc2ccc(OC)c(CNC[C@@H](C)N3CCCC3)c2)n1` [Compound 42], the IC50 was 1 to 10 µM.
Compound `CNc1cc(C)nc(Nc2ccc(OC)c(CNCCN3CCC[C@@H]3C)c2)n1` [Compound 32] has an IC50 of 1 to 10 µM.
In the case of `CNc1cc(C)nc(Nc2ccc(Cl)c(C(=O)Nc3cccnn3)c2)n1` [Compound 5], the IC50 is reported as over 10 µM.
Work on `CNc1cc(C)nc(Nc2ccc(OC)c(C#CCNCCN(C)C)c2)n1` [Compound 49] yielded an IC50 of 1 to 10 µM.
For `CNc1cc(C)nc(Nc2ccc(Cl)c(C(=O)NCC3COC3)c2)n1` [Compound 2, 2-chloro-5-[[4-methyl-6-(methylamino)pyrimidin-2-yl]amino]-N-(oxetan-3-ylmethyl)benzamide], the IC50 was over 10 µM.
In the case of `CNc1cc(C)nc(Nc2ccc(C)c(C(=O)Nc3c[nH]cn3)c2)n1` [Compound 37], the IC50 is reported as over 10 µM.
`CNc1cc(C)nc(Nc2ccc(Cl)c(C(=O)Nc3cn(C)cn3)c2)n1` [Compound 15] showed an IC50 of over 10 µM.
In the case of `CNc1cc(C)nc(Nc2ccc(OC)c(CNCCN3CC[C@H](C)C3)c2)n1` [Compound 39], the IC50 is reported as 1 to 10 µM.
In the case of `CNc1cc(C)nc(Nc2ccc(OC)c(CN[C@@H](C)CN3CCCC3)c2)n1` [Compound 47], the IC50 is reported as 1 to 10 µM.
`CCCCNC(=O)c1cc(Nc2nc(C)cc(NC)n2)ccc1Cl` [Compound 9] showed an IC50 of 1 to 10 µM.
For `CNc1cc(C)nc(Nc2ccc(Cl)c(C(=O)NC3CCOCC3)c2)n1` [Compound 8], the IC50 was over 10 µM.
With `CNc1cc(C)nc(Nc2ccc(Cl)c(C(=O)Nc3cscn3)c2)n1` [Compound 13] the IC50 was 1 to 10 µM.
`CNc1cc(C)nc(Nc2ccc(OC)c(OC[C@H](O)CN3CCCCC3)c2)n1` [Compound 40] was tested, and the IC50 was over 10 µM.
For `CNc1cc(C)nc(Nc2ccc(C)c(C(=O)Nc3cn(C4CC4)cn3)c2)n1` [Compound 36], the IC50 was over 10 µM.
With `CNc1cc(C)nc(Nc2ccc(C)c(C(=O)Nc3cc(C#N)ccn3)c2)n1` [Compound 30] the IC50 was over 10 µM.
Work on `CNc1cc(C)nc(Nc2ccc(OC)c(CNCCN3CC(C)C3)c2)n1` [Compound 35] yielded an IC50 of over 10 µM.
`CNc1cc(C)nc(Nc2ccc(OC)c(CNC[C@H](C)N3CCCC3)c2)n1` [Compound 43] was tested, and the IC50 was over 10 µM.
`CNc1cc(C)nc(Nc2ccc(C)c(C(=O)Nc3ncn(C)n3)c2)n1` [Compound 33] was tested, and the IC50 was over 10 µM.
`CNc1cc(C)nc(Nc2ccc(OC)c(C#CC[N+](C)(C)CCN)c2)n1` [Compound 45] was tested, and the IC50 was over 10 µM.
Work on `CNc1cc(C)nc(Nc2ccc(Cl)c(C(=O)Nc3ncco3)c2)n1` [Compound 6] yielded an IC50 of 1 to 10 µM.
For `CNc1cc(C)nc(Nc2ccc(Cl)c(C(=O)NCC3CC3)c2)n1` [Compound 4], the IC50 was over 10 µM.
For `CNc1cc(C)nc(Nc2ccc(OC)c(CNCCN3CCC[C@H]3C)c2)n1` [Compound 31], the IC50 was 1 to 10 µM.
With `CNc1cc(C)nc(Nc2ccc(OC)c(CNCCN3CC[C@@H](C)C3)c2)n1` [Compound 38] the IC50 was over 10 µM.
Work on `CNc1cc(C)nc(Nc2ccc(Br)c(CNCCN3CCCC3)c2)n1` [Compound 1, 2-N-[4-bromo-3-([[2-(pyrrolidin-1-yl)ethyl]amino]methyl)phenyl]-4-N,6-dimethylpyrimidine-2,4-diamine] yielded an IC50 of 1 to 10 µM.
Compound `CNc1cc(C)nc(Nc2ccc(Cl)c(C(=O)Nc3cocn3)c2)n1` [Compound 14, 2-chloro-5-[[4-methyl-6-(methylamino)pyrimidin-2-yl]amino]-N-(1,3-oxazol-4-yl)benzamide] has an IC50 of over 10 µM.

Same assay, conditions: Homo sapiens, Table 3A, read-out: ICW (IC50 μM)
With `CNC1=Nc2cc(-c3cc4n(n3)CCN(C)C4)c(Cl)cc2C12CCC2` [Compound A12, 5′-chloro-N-methyl-6′-(5-methyl-4,5,6,7-tetrahydropyrazolo[1,5-a]145yrazine-2-yl)spiro[cyclobutane-1,3′-indol]-2′-amine] the IC50 was over 1 µM.
`CNCc1cc(-c2c(OC)ccc(Nc3nc(C)cc(NC)n3)c2F)no1` [Compound A14, N2-(2-fluoro-4-methoxy-3-[5-[(methylamino)methyl]-1,2-oxazol-3-yl]phenyl)-N4,6-dimethylpyrimidine-2,4-diamine] gave an IC50 of 0.1 to 1 µM.
`CNCc1cn(-c2c(OC)cc3c(c2F)N=C(NC)C32CCC2)nn1` [Compound A21] was tested, and the IC50 was 0.1 to 1 µM.
With `CNCc1cn(-c2cc(Nc3nc(C)cc(NC)n3)ccc2Cl)nn1` [Compound A1] the IC50 was 0.01 to 0.1 µM.
`CNCc1cn(-c2cc3c(cc2Cl)C2(CCC2)C(N)=N3)nn1` [Compound A15, 5′-chloro-6′-(4-((methylamino)methyl)-1H-1,2,3-triazol-1-yl)spiro[cyclobutane-1,3′-indol]-2′-amine] was tested, and the IC50 was 0.1 to 1 µM.
In the case of `CNc1cc(C)nc(Nc2ccc(OC)c(-n3cc(C4CCCN4)nn3)c2F)n1` (stereo not shown) [Compound A4], the IC50 is reported as 0.01 to 0.1 µM.
`CNCc1cn(-c2c(OC)ccc(Nc3nc(C)cc(NC)n3)c2F)nn1` [Compound A3, N2-(2-fluoro-4-methoxy-3-[4-[(methylamino)methyl]-1H-1,2,3-triazol-1-yl]phenyl)-N4,6-dimethylpyrimidine-2,4-diamine] gave an IC50 of 0.01 to 0.1 µM.
With `CNCc1cn(-c2cc3c(cc2Cl)C2(CCC2)C(NC)=N3)nn1` [Compound A11, 5′-chloro-N-methyl-6′-(4-((methylamino)methyl)-1H-1,2,3-triazol-1-yl)spiro[cyclobutane-1,3′-indol]-2′-amine] the IC50 was 0.1 to 1 µM.
Work on `CNC1=Nc2cc(-n3cc([C@H]4CCCN4)nn3)c(Cl)cc2C12CCC2` [Compound A2R, (R)-5′-chloro-N-methyl-6′-(4-(pyrrolidin-2-yl)-1H-1,2,3-triazol-1-yl)spiro[cyclobutane-1,3′-indol]-2′-amine] yielded an IC50 of 0.01 to 0.1 µM.
`CNc1cc(C)nc(Nc2ccc(OC)c(-n3cc(CNC(C)C)cn3)c2F)n1` [Compound A5] gave an IC50 of over 1 µM.
For `CNc1cc(C)nc(Nc2ccc(OC)c(-n3cc([C@@H]4CCCN4)nn3)c2F)n1` [Compound A4S], the IC50 was 0.1 to 1 µM.
`CNc1cc(C)nc(Nc2ccc(OC)c(-n3cc([C@H]4CCCN4)nn3)c2F)n1` [Compound A4R] was tested, and the IC50 was 0.01 to 0.1 µM.
With `CNc1cc(C)nc(Nc2ccc(OC)c(-n3ncc4c3CCNC4)c2F)n1` [Compound A9, N2-(2-fluoro-4-methoxy-3-(4,5,6,7-tetrahydro-1H-pyrazolo[4,3-c]142yridine-1-yl)phenyl)-N4,6-dimethylpyrimidine-2,4-diamine] the IC50 was 0.1 to 1 µM.
Compound `CNC1=Nc2cc(-n3cc(C4CCCN4)nn3)c(Cl)cc2C12CCC2` (stereo not shown) [Compound A2] has an IC50 of 0.1 to 1 µM.
`CNC1=Nc2cc(-c3cc4n(n3)CCNC4)c(Cl)cc2C12CCC2` [Compound A10, 5′-chloro-N-methyl-6′-(4,5,6,7-tetrahydropyrazolo[1,5-a]pyrazin-2-yl)spiro[cyclobutane-1,3′-indol]-2′-amine] gave an IC50 of over 1 µM.
`CNC1=Nc2cc(-n3cc(CN4CCC4)cn3)c(Cl)cc2C12CCC2` [Compound A17, 6′-(4-(azetidin-1-ylmethyl)-1H-pyrazol-1-yl)-5′-chloro-N-methylspiro[cyclobutane-1,3′-indol]-2′-amine] was tested, and the IC50 was 0.1 to 1 µM.
`CNCc1cnn(-c2c(OC)ccc(Nc3nc(NC)cc(C(C)C)n3)c2F)c1` [Compound A8, N^2-(2-fluoro-4-methoxy-3-[4-[(methylamino)methyl]-1H-pyrazol-1-yl]phenyl)-N^4-methyl-6-(propan-2-yl)pyrimidine-2,4-diamine] showed an IC50 of 0.01 to 0.1 µM.
`CNC1=Nc2cc(-n3cc([C@@H]4CCCN4)nn3)c(Cl)cc2C12CCC2` [Compound A2S, (S)-5′-chloro-N-methyl-6′-(4-(pyrrolidin-2-yl)-1H-1,2,3-triazol-1-yl)spiro[cyclobutane-1,3′-indol]-2′-amine] showed an IC50 of over 1 µM.
